From the NIST ThermoML archive (doi:10.1016/j.tca.2016.01.016)
“And” between values parts separate entries of the source, which are not always exact repeats. Identical values can stand only once.

Experiment: molar heat capacity at constant pressure
Details: 101.33 kPa, Crystal, Small sample (50 mg) DSC

O=P([O-])([O-])[O-].[Dy+3] [dysprosium(III) phosphate]
Details	molar heat capacity at constant pressure
348.15 K	117.5 J/K/mol and 118.3 J/K/mol
353.15 K	119.1 J/K/mol and 119.4 J/K/mol
358.15 K	120.4 J/K/mol and 120.4 J/K/mol
363.15 K	121.5 J/K/mol and 121.3 J/K/mol
368.15 K	122.5 J/K/mol and 122.3 J/K/mol
373.15 K	123.3 J/K/mol and 123.2 J/K/mol
378.15 K	124.1 J/K/mol and 124.1 J/K/mol
383.15 K	124.9 J/K/mol and 124.9 J/K/mol
388.15 K	125.7 J/K/mol and 125.7 J/K/mol
393.15 K	126.4 J/K/mol and 126.5 J/K/mol
398.15 K	127.3 J/K/mol and 127.3 J/K/mol
403.15 K	128.1 J/K/mol and 128 J/K/mol
408.15 K	128.9 J/K/mol and 128.7 J/K/mol
413.15 K	129.6 J/K/mol and 129.4 J/K/mol
418.15 K	130.4 J/K/mol and 130.1 J/K/mol
423.15 K	131 J/K/mol and 130.8 J/K/mol
428.15 K	131.7 J/K/mol and 131.4 J/K/mol
433.15 K	132.3 J/K/mol and 132 J/K/mol
438.15 K	132.8 J/K/mol and 132.6 J/K/mol
443.15 K	133.4 J/K/mol and 133.2 J/K/mol
448.15 K	133.9 J/K/mol and 133.8 J/K/mol
453.15 K	134.5 J/K/mol and 134.3 J/K/mol
458.15 K	135 J/K/mol and 134.9 J/K/mol
463.15 K	135.5 J/K/mol and 135.4 J/K/mol
468.15 K	136.1 J/K/mol and 135.9 J/K/mol
473.15 K	136.6 J/K/mol and 136.4 J/K/mol
478.15 K	137 J/K/mol and 136.9 J/K/mol
483.15 K	137.4 J/K/mol and 137.4 J/K/mol
488.15 K	137.9 J/K/mol and 137.8 J/K/mol
493.15 K	138.3 J/K/mol and 138.3 J/K/mol
498.15 K	138.7 J/K/mol and 138.7 J/K/mol
503.15 K	139.1 J/K/mol and 139.1 J/K/mol
508.15 K	139.5 J/K/mol and 139.5 J/K/mol
513.15 K	139.9 J/K/mol and 140 J/K/mol
518.15 K	140.3 J/K/mol and 140.3 J/K/mol
523.15 K	140.7 J/K/mol and 140.7 J/K/mol
528.15 K	141 J/K/mol and 141.1 J/K/mol
533.15 K	141.3 J/K/mol and 141.5 J/K/mol
538.15 K	141.6 J/K/mol and 141.9 J/K/mol
543.15 K	142 J/K/mol and 142.2 J/K/mol
548.15 K	142.4 J/K/mol and 142.6 J/K/mol
553.15 K	142.7 J/K/mol and 142.9 J/K/mol
558.15 K	143 J/K/mol and 143.2 J/K/mol
563.15 K	143.4 J/K/mol and 143.6 J/K/mol
568.15 K	143.7 J/K/mol and 143.9 J/K/mol
573.15 K	143.9 J/K/mol and 144.2 J/K/mol
578.15 K	144.3 J/K/mol and 144.5 J/K/mol
583.15 K	144.6 J/K/mol and 144.8 J/K/mol
588.15 K	144.8 J/K/mol and 145.1 J/K/mol
593.15 K	145.1 J/K/mol and 145.4 J/K/mol
598.15 K	145.3 J/K/mol and 145.7 J/K/mol
603.15 K	145.6 J/K/mol and 145.9 J/K/mol
608.15 K	145.9 J/K/mol and 146.2 J/K/mol
613.15 K	146.1 J/K/mol and 146.5 J/K/mol
618.15 K	146.4 J/K/mol and 146.8 J/K/mol
623.15 K	146.7 J/K/mol and 147 J/K/mol
628.15 K	147 J/K/mol and 147.3 J/K/mol
633.15 K	147.3 J/K/mol and 147.5 J/K/mol
638.15 K	147.5 J/K/mol and 147.8 J/K/mol
643.15 K	147.8 J/K/mol and 148 J/K/mol
648.15 K	148 J/K/mol and 148.2 J/K/mol
653.15 K	148.2 J/K/mol and 148.5 J/K/mol
658.15 K	148.5 J/K/mol and 148.7 J/K/mol
663.15 K	148.8 J/K/mol and 148.9 J/K/mol
668.15 K	149.1 J/K/mol and 149.1 J/K/mol
673.15 K	149.3 J/K/mol and 149.3 J/K/mol
678.15 K	149.6 J/K/mol and 149.6 J/K/mol
683.15 K	149.9 J/K/mol and 149.8 J/K/mol
688.15 K	150.1 J/K/mol and 150 J/K/mol
693.15 K	150.4 J/K/mol and 150.2 J/K/mol
698.15 K	150.7 J/K/mol and 150.4 J/K/mol
703.15 K	150.9 J/K/mol and 150.6 J/K/mol
708.15 K	151.1 J/K/mol and 150.8 J/K/mol
713.15 K	151.4 J/K/mol and 151 J/K/mol
718.15 K	151.6 J/K/mol and 151.1 J/K/mol
723.15 K	151.8 J/K/mol and 151.3 J/K/mol
728.15 K	152 J/K/mol and 151.5 J/K/mol
733.15 K	152.1 J/K/mol and 151.7 J/K/mol
738.15 K	152.3 J/K/mol and 151.9 J/K/mol
743.15 K	152.5 J/K/mol and 152 J/K/mol
748.15 K	152.7 J/K/mol and 152.2 J/K/mol
753.15 K	152.9 J/K/mol and 152.4 J/K/mol
758.15 K	152.9 J/K/mol and 152.5 J/K/mol
763.15 K	153.1 J/K/mol and 152.7 J/K/mol
768.15 K	153.3 J/K/mol and 152.9 J/K/mol
773.15 K	153.4 J/K/mol and 153 J/K/mol
778.15 K	153.4 J/K/mol and 153.2 J/K/mol
783.15 K	153.6 J/K/mol and 153.3 J/K/mol
788.15 K	153.5 J/K/mol
793.15 K	153.7 J/K/mol and 153.6 J/K/mol
798.15 K	153.8 J/K/mol
803.15 K	154 J/K/mol and 153.9 J/K/mol
808.15 K	154.1 J/K/mol
813.15 K	154.2 J/K/mol
818.15 K	154.3 J/K/mol and 154.4 J/K/mol
823.15 K	154.4 J/K/mol and 154.5 J/K/mol
828.15 K	154.5 J/K/mol and 154.6 J/K/mol
833.15 K	154.5 J/K/mol and 154.8 J/K/mol
838.15 K	154.6 J/K/mol and 154.9 J/K/mol
843.15 K	154.8 J/K/mol and 155 J/K/mol
848.15 K	154.9 J/K/mol and 155.2 J/K/mol
853.15 K	154.9 J/K/mol and 155.3 J/K/mol
858.15 K	155 J/K/mol and 155.4 J/K/mol
863.15 K	155.1 J/K/mol and 155.6 J/K/mol
868.15 K	155.2 J/K/mol and 155.7 J/K/mol

O=P([O-])([O-])[O-].[Er+3] [erbium phosphate]
Details	molar heat capacity at constant pressure
348.15 K	113.7 J/K/mol and 113.8 J/K/mol
353.15 K	114.5 J/K/mol and 114.6 J/K/mol
358.15 K	115.2 J/K/mol and 115.3 J/K/mol
363.15 K	115.9 J/K/mol and 116.1 J/K/mol
368.15 K	116.4 J/K/mol and 116.8 J/K/mol
373.15 K	116.8 J/K/mol and 117.4 J/K/mol
378.15 K	117.4 J/K/mol and 118.1 J/K/mol
383.15 K	118.1 J/K/mol and 118.8 J/K/mol
388.15 K	119.1 J/K/mol and 119.4 J/K/mol
393.15 K	119.9 J/K/mol and 120 J/K/mol
398.15 K	120.7 J/K/mol and 120.6 J/K/mol
403.15 K	121.5 J/K/mol and 121.2 J/K/mol
408.15 K	122.2 J/K/mol and 121.8 J/K/mol
413.15 K	122.9 J/K/mol and 122.4 J/K/mol
418.15 K	123.5 J/K/mol and 123 J/K/mol
423.15 K	124 J/K/mol and 123.5 J/K/mol
428.15 K	124.5 J/K/mol and 124.1 J/K/mol
433.15 K	125 J/K/mol and 124.6 J/K/mol
438.15 K	125.4 J/K/mol and 125.1 J/K/mol
443.15 K	125.9 J/K/mol and 125.6 J/K/mol
448.15 K	126.4 J/K/mol and 126.1 J/K/mol
453.15 K	126.9 J/K/mol and 126.6 J/K/mol
458.15 K	127.4 J/K/mol and 127.1 J/K/mol
463.15 K	127.8 J/K/mol and 127.6 J/K/mol
468.15 K	128.2 J/K/mol and 128 J/K/mol
473.15 K	128.7 J/K/mol and 128.5 J/K/mol
478.15 K	129.1 J/K/mol and 129 J/K/mol
483.15 K	129.5 J/K/mol and 129.4 J/K/mol
488.15 K	129.9 J/K/mol and 129.8 J/K/mol
493.15 K	130.3 J/K/mol and 130.3 J/K/mol
498.15 K	130.7 J/K/mol and 130.7 J/K/mol
503.15 K	131.1 J/K/mol and 131.1 J/K/mol
508.15 K	131.5 J/K/mol and 131.5 J/K/mol
513.15 K	132 J/K/mol and 131.9 J/K/mol
518.15 K	132.4 J/K/mol and 132.3 J/K/mol
523.15 K	132.8 J/K/mol and 132.7 J/K/mol
528.15 K	133.2 J/K/mol and 133.1 J/K/mol
533.15 K	133.6 J/K/mol and 133.4 J/K/mol
538.15 K	134 J/K/mol and 133.8 J/K/mol
543.15 K	134.5 J/K/mol and 134.2 J/K/mol
548.15 K	134.8 J/K/mol and 134.5 J/K/mol
553.15 K	135.1 J/K/mol and 134.9 J/K/mol
558.15 K	135.4 J/K/mol and 135.2 J/K/mol
563.15 K	135.8 J/K/mol and 135.6 J/K/mol
568.15 K	136.1 J/K/mol and 135.9 J/K/mol
573.15 K	136.3 J/K/mol and 136.2 J/K/mol
578.15 K	136.6 J/K/mol and 136.6 J/K/mol
583.15 K	136.9 J/K/mol and 136.9 J/K/mol
588.15 K	137.2 J/K/mol and 137.2 J/K/mol
593.15 K	137.5 J/K/mol and 137.5 J/K/mol
598.15 K	137.8 J/K/mol and 137.8 J/K/mol
603.15 K	138 J/K/mol and 138.1 J/K/mol
608.15 K	138.3 J/K/mol and 138.4 J/K/mol
613.15 K	138.6 J/K/mol and 138.7 J/K/mol
618.15 K	138.8 J/K/mol and 139 J/K/mol
623.15 K	139 J/K/mol and 139.3 J/K/mol
628.15 K	139.3 J/K/mol and 139.6 J/K/mol
633.15 K	139.6 J/K/mol and 139.9 J/K/mol
638.15 K	139.8 J/K/mol and 140.2 J/K/mol
643.15 K	140.1 J/K/mol and 140.4 J/K/mol
648.15 K	140.3 J/K/mol and 140.7 J/K/mol
653.15 K	140.6 J/K/mol and 141 J/K/mol
658.15 K	140.9 J/K/mol and 141.3 J/K/mol
663.15 K	141.2 J/K/mol and 141.5 J/K/mol
668.15 K	141.4 J/K/mol and 141.8 J/K/mol
673.15 K	141.6 J/K/mol and 142 J/K/mol
678.15 K	141.8 J/K/mol and 142.3 J/K/mol
683.15 K	142.1 J/K/mol and 142.5 J/K/mol
688.15 K	142.3 J/K/mol and 142.8 J/K/mol
693.15 K	142.6 J/K/mol and 143 J/K/mol
698.15 K	142.9 J/K/mol and 143.3 J/K/mol
703.15 K	143.1 J/K/mol and 143.5 J/K/mol
708.15 K	143.5 J/K/mol and 143.8 J/K/mol
713.15 K	143.7 J/K/mol and 144 J/K/mol
718.15 K	143.9 J/K/mol and 144.2 J/K/mol
723.15 K	144.2 J/K/mol and 144.4 J/K/mol
728.15 K	144.4 J/K/mol and 144.7 J/K/mol
733.15 K	144.6 J/K/mol and 144.9 J/K/mol
738.15 K	144.8 J/K/mol and 145.1 J/K/mol
743.15 K	145 J/K/mol and 145.3 J/K/mol
748.15 K	145.2 J/K/mol and 145.6 J/K/mol
753.15 K	145.5 J/K/mol and 145.8 J/K/mol
758.15 K	145.8 J/K/mol and 146 J/K/mol
763.15 K	146.1 J/K/mol and 146.2 J/K/mol
768.15 K	146.3 J/K/mol and 146.4 J/K/mol
773.15 K	146.5 J/K/mol and 146.6 J/K/mol
778.15 K	146.8 J/K/mol and 146.8 J/K/mol
783.15 K	147 J/K/mol and 147 J/K/mol
788.15 K	147.2 J/K/mol and 147.2 J/K/mol
793.15 K	147.5 J/K/mol and 147.4 J/K/mol
798.15 K	147.8 J/K/mol and 147.6 J/K/mol
803.15 K	148 J/K/mol and 147.8 J/K/mol
808.15 K	148.2 J/K/mol and 148 J/K/mol
813.15 K	148.5 J/K/mol and 148.2 J/K/mol
818.15 K	148.7 J/K/mol and 148.4 J/K/mol
823.15 K	148.9 J/K/mol and 148.5 J/K/mol
828.15 K	149.1 J/K/mol and 148.7 J/K/mol
833.15 K	149.3 J/K/mol and 148.9 J/K/mol
838.15 K	149.5 J/K/mol and 149.1 J/K/mol
843.15 K	149.7 J/K/mol and 149.3 J/K/mol
848.15 K	149.9 J/K/mol and 149.5 J/K/mol
853.15 K	150.2 J/K/mol and 149.6 J/K/mol
858.15 K	150.3 J/K/mol and 149.8 J/K/mol
863.15 K	150.5 J/K/mol and 150 J/K/mol
868.15 K	150.8 J/K/mol and 150.1 J/K/mol
